Laboratory results published in ChEMBL document CHEMBL1136342, “X-ray structures of two xanthine inhibitors bound to PEPCK and N-3 modifications of substituted 1,8-dibenzylxanthines” (Bioorg Med Chem Lett, 2003).

Assay: Binding affinity against phosphoenolpyruvate carboxykinase (PEPCK) using isothermal titration calorimetry(ITC)

SMILES | Ki
CC(=O)Nc1ccc(Cc2nc3c(=O)n(Cc4ccccc4F)c(=O)n(CCCC(=O)O)c3[nH]2)cc1 | 0.2 µM

Assay: Inhibition of human phosphoenolpyruvate carboxykinase (PEPCK).

SMILES | IC50
CCCCn1c(=O)n(Cc2ccccc2F)c(=O)c2[nH]c(Cc3ccc(NC(C)=O)cc3)nc21 | 2.11 µM
CC(=O)Nc1ccc(Cc2nc3c(=O)n(Cc4ccccc4F)c(=O)n(CCCCO)c3[nH]2)cc1 | 2.85 µM
CC(=O)Nc1ccc(Cc2nc3c(=O)n(Cc4ccccc4F)c(=O)n(CCCO)c3[nH]2)cc1 | 5.45 µM
CC(=O)Nc1ccc(Cc2nc3c(=O)n(Cc4ccccc4F)c(=O)n(CCC(=O)O)c3[nH]2)cc1 | 2 µM
CC(=O)Nc1ccc(Cc2nc3c(=O)n(Cc4ccccc4F)c(=O)n(CC4CCCO4)c3[nH]2)cc1 (stereo unspecified) | 5.7 µM
CC(=O)Nc1ccc(Cc2nc3c(=O)n(Cc4ccccc4F)c(=O)n(CC4CC4(CO)CO)c3[nH]2)cc1 (stereo unspecified) | 2 µM
CC(=O)Nc1ccc(Cc2nc3c(=O)n(Cc4ccccc4F)c(=O)n(CC4CCCC4)c3[nH]2)cc1 | 3.05 µM
CC(=O)Nc1ccc(Cc2nc3c([nH]2)c(=O)n(Cc2ccccc2F)c(=O)n3CC(C)C)cc1 | 2.02 µM
CCCn1c(=O)n(Cc2ccccc2F)c(=O)c2[nH]c(Cc3ccc(NC(C)=O)cc3)nc21 | 1.49 µM
CC(=O)Nc1ccc(Cc2nc3c(=O)n(Cc4ccccc4F)c(=O)n(CCCC(N)=O)c3[nH]2)cc1 | 6.6 µM
CC(=O)Nc1ccc(Cc2nc3c(=O)n(Cc4ccccc4F)c(=O)n(Cc4ccoc4)c3[nH]2)cc1 | 4.5 µM
CCCCCCn1c(=O)n(Cc2ccccc2F)c(=O)c2[nH]c(Cc3ccc(NC(C)=O)cc3)nc21 | 8.9 µM
COC(=O)[C@H]1CC1Cn1c(=O)n(Cc2ccccc2F)c(=O)c2[nH]c(Cc3ccc(NC(C)=O)cc3)nc21 (stereo partly specified) | 3 µM
CC(=O)Nc1ccc(Cc2nc3c(=O)n(Cc4ccccc4F)c(=O)n(CCCC(=O)O)c3[nH]2)cc1 | 1.95 µM
CC(=O)Nc1ccc(Cc2nc3c(=O)n(Cc4ccccc4F)c(=O)n(CC4C[C@@H]4CO)c3[nH]2)cc1 (stereo partly specified) | 2.27 µM
CC(=O)Nc1ccc(Cc2nc3c([nH]2)c(=O)n(Cc2ccccc2F)c(=O)n3CC2CC2)cc1 | 0.69 µM
CC(=O)Nc1ccc(Cc2nc3c(=O)n(Cc4ccccc4F)c(=O)n(CC4CCC4)c3[nH]2)cc1 | 1.18 µM
CC(=O)Nc1ccc(Cc2nc3c([nH]2)c(=O)n(Cc2ccccc2F)c(=O)n3CC2C[C@@H]2C)cc1 (stereo partly specified) | 1.82 µM
CC(=O)Nc1ccc(Cc2nc3c(=O)n(Cc4ccccc4F)c(=O)n(CC4CCCCO4)c3[nH]2)cc1 (stereo unspecified) | 4.5 µM
CC(=O)Nc1ccc(Cc2nc3c(=O)n(Cc4ccccc4F)c(=O)n(CC4C[C@@H]4C(=O)O)c3[nH]2)cc1 (stereo partly specified) | 0.56 µM
